Measured values: publication PMC11696576, “Next generation thiazolyl ketone inhibitors of cytosolic phospholipase A2 α for targeted cancer therapy” (Nature Communications, 2025)
Several values for one entry are separate records, joined by “and”; a condition that tells them apart may be missing. Equal entries are not always repeated.

How the values were obtained:
CCRF-CEM cells [1] = assay: cell viability, CTG assay, CCRF-CEM; details: for viability signal, raw values: Figure 6e
Protocol: Data are the mean ± stdev of 3 biological replicates. c Viability of healthy T-cells measured by propidium iodide (PI) exclusion. Data are the mean ± stdev of 8 biological replicates for 1–16 µM AVX420, 5 for 32 µM AVX420 and 2 for 0.5 µM Staurosporine (Stau). d Cell viability measured by CTG assay in cells preincubated with 2.5 mM glutathione (GSH) or 2.5 mM N-acetyl cysteine (NAC) for 30 min before addition of 0.5 or 1 µM AVX420, 0.06 µM RSL-3, or 0.06 µM ML-210 for 24 h. Data are the mean ± stdev of 3 biological replicates. P-values were determined by one-way ANOVA with Dunnett’s correction for multiple testing and **** indicates P < 0.0001. e Cell viability measured by CTG assay. CCRF-CEM or Jurkat cells were co-treated with 0.5 µM AVX420 and either arachidonic acid (AA) at concentrations ranging from 1 to 100 µM or a mixture of 9 eicosanoids: 6-keto prostaglandin F1α, Thromboxane B2, prostaglandin F2α, prostaglandin E2, prostaglandin D2, 12(S)-HHTrE, 15(S)-HETE,12(S)-HETE, 5(S)-HETE at a final concentration of 2 ng/mL each (EIC-mix) for 24 h. Data are the mean ± stdev of 3 biological replicates. P-values were determined by two-way ANOVA with Sidak’s correction for multiple comparisons. f Proportion of intracellular ROS-positive cells measured by ROS-red staining and flow cytometry. Cells were treated with indicated concentrations of AVX420 (µM), 1 mM H2O2, 1 µM RSL-3, or 1 µM doxorubicin (dox) for 4 h. Data are the mean ± stdev of 3 biological replicates. g Intracellular ROS measurements in CCRF-CEM cells treated with AVX420 (0.5 µM), AVX002 (8 µM), or AACOCF3 (8 µM) for 4 h.
All cell lines were confirmed to be free of mycoplasma contamination. The cell lines were not authenticated. MV-4-11 were cultured in Iscove’s Modified Dulbecco’s Medium (Sigma, I3390). CCRF-CEM, Jurkat E6.1, and HL-60 cells were cultured in RPMI 1640 Medium RPMI-1640 medium (Sigma, R5886).

Jurkat E6.1 cells [2] = assay: intracellular ROS, ROS-red staining and flow cytometry, Jurkat E6.1; type: cell-based, human; design: ROS Negative Cells / ROS Negative Cells (Figure S9 a) / ROS Negative Cells (Figure S9c): unit not given here; details: AA 20 µM; rep1, rep2
Protocol: (§1) Data are the mean ± stdev of 3 biological replicates. […] Data are the mean ± stdev of 3 biological replicates.
(§2) Rather, when combined with AVX420, exogenous AA augmented cell death (Fig. 6e). […] The response occurred within 1 h, peaked at 8–12 h, and preceded the loss of cell viability (Fig. S9a, b).
(§3) After treatment, cells were stained with cellular ROS Assay Kit (Cat. No. ab186029; Abcam, Cambridge, United Kingdom) following the manufacturer’s instructions, and ROS-positive cells were quantified by flow cytometry using either the NovoCyte flow cytometer, and Novoexpress Software v1.5.0 from Agilent Technologies (Santa Clara, USA) or the CytoFLEX flow cytometer and CytExpert analysis software v 2.5 from Beckman Coulter (California, United States). An example showing the gating strategy used to assess ROS-Red staining is found in Fig. S9d.

Jurkat E6.1 cells [3] = assay: cell viability, CTG assay, Jurkat E6.1; type: cell-based, human; details: for viability signal, raw values: Figure 6e
From the text: as §1
Bjørn Tore Gjertsen (University of Bergen, Norway). […] The cell lines were not authenticated.

whole blood = assay: eicosanoid release from LPS-stimulated whole blood; type: cell-based, human; design: LTB4 / 5-HETE / 11,12-EET / 12-HETE: unit not given here; details: for 15-HETE level, whole blood / PGE2 level, whole blood / TxB2 level, whole blood: individual replicate
From the text: In whole blood, bacterial lipopolysaccharide (LPS) stimulated the release of PGE2, thromboxane B2 (TXB2), and 15-hydroxyeicosatetraenoic acid (HETE). […] The levels of leukotriene B4 (LTB4), 12-HETE, 5-HETE and 11,12-epoxyeicosatrienoic acid (EET) were not affected by LPS stimulation but increased when exogenous AA was included, irrespective of the presence of GK420 (Fig. S1a).
Fig. 3 Ex vivo suppression of eicosanoid production by GK420. a Eicosanoid levels (pmol/mL) in the plasma of whole blood pretreated with vehicle (DMSO), 3, 10 or 30 µM GK420,) 10 µM arachidonyl trifluoromethyl ketone (ATK), or 1 μM indomethacin (Indo) before stimulation with 1 µg/mL LPS for 24 h. […] All box and whisker plots show the mean (center line), stdev (box), and min and max values (whiskers) from 4 biological replicates. P-values were determined using RM-one way ANOVA with Dunnett’s correction for multiple comparisons.
Aliquots of 0.4 mL of heparinized whole blood were mixed with 1.6 mL of serum-free RPMI cultivation medium with- or without indomethacin (# I7378, Sigma-Aldrich), GK420, or arachidonyl trifluoromethyl ketone (ATK) (Cayman #62120), prior to the addition of lipopolysaccharides (LPS) (1 μg/mL) to activate the cPLA2α enzyme (LPS was from E. coli 026:B6 γ-irradiated, #L2654, Sigma-Aldrich). Exogenous arachidonic acid (5–10 µM) (#3555, Sigma-Aldrich) was added after 23.5 h, for the final 30 mins of the 24 h stimulation. Following treatment (24 h, 37 °C, 5% CO2), the diluted blood was centrifuged (5992 × g for 10 min at 4 °C) to isolate the plasma from the cell fraction. Plasma samples were stored at −80 °C until analysis. Samples were analyzed at the Lipid Maps Consortium, UCSD according to the standard methods. 200 µL of sample was subjected to solid phase extraction of the eicosanoids using the StrataX solid phase extraction columns from Phenomenex and analyzed by UHPLC-MS/MS using full standards mix.

CCRF-CEM cells [4] = assay: intracellular ROS, ROS-red staining and flow cytometry, CCRF-CEM; type: cell-based, human; details: CCRF-CEM, 8 µM, 4 h
Protocol: as §1, §2, §3
Figure S9. Intracellular ROS accumulation and cell death. a. Time dependency of the in-crease in iROS following treatment with AVX420 in CCRF-CEM cells as measured by ROS-red stain-ing. Data are the mean ±stdev from ≥2 biological replicates b. […]
±stdev of ≥2 biological replicates c. intracellular ROS measurements in CCRF-CEM cells treated with 0.5 µM AVX420 in the presence of 20 µM arachidonic acid (AA) or 5 µM liproxstatin (Lip) for 4 hours. Data are the mean ± stdev of 2 biological replicates. d. […]
analysis of ROS Red staining by flow cytometry. (i) Gating of live cells using FSC-H versus SSC-H.
(ii) Gating based on ROS Deep Red staining under control conditions and after treatment with (iii) […]
(1 picture or pasted object on this page, not shown here)

isolated human PBMCs = assay: eicosanoid release from A23187-stimulated PBMCs (ELISA); type: cell-based; design: 6-Keto PGF1a / 12-HETE: unit not given here; details: 5 µM; for LTB4 level, PBMCs / PGE2 level, PBMCs / TxB2 level, PBMCs: A23187, individual replicate
Protocol: In PBMCs, the calcium ionophore A23187 stimulated the release of PGE2, TXB2, LTB4, 6-keto prostaglandin F1α (PGF1α), and 12-HETE.
PBMCs were isolated from buffy coats using Lymphoprep as described by the manufacturer ([…] Technologies, Vancouver, Canada). Red blood cells were lysed and removed using RBC lysis buffer (Roche, Basel, Switzerland) and the remaining cells were resuspended in 10 mL of RPMI-1640 supplemented with 5% FBS. The TC20 automated cell counter (BIO-RAD, Hercules, California, USA) was used to count the number of cells and check the viability by staining with trypan blue (0.4%) (NanoEnTek, Waltham, MA, USA). For experiments, 5 × 10^5 cells were seeded in 0.5 mL in 24 well plates with RPMI medium supplemented with 5% FBS, 0.3 mg/mL glutamine, and 0.1 mg/mL gentamicin. Cells were preincubated with inhibitors for 2 h before incubating with 30 µM Ca^2+ ionophore A23187 for 15 min to activate cPLA2α. After incubation, the supernatant was obtained by centrifugation at 5992 × g for 10 min at 4° and stored at −80 °C until assayed for PGE2, LTB4, TxB2, 6-Keto PGF1α, and 12S-HETE using enzyme-linked immunosorbent assays (ELISAs) (Cayman #514435, Cayman #10009292, Cayman #501020, Cayman #15210, and Enzo Lifesciences #ADI-900-050). After an overnight hybridization, the enzymatic conversion of substrate was read at OD420 nm using a Cytation 5 multimode platereader (Biotek Instruments, Winooski, VT, USA). Standard curves fit using 4-parameter logistic regression in myassays.com were used to calculate eicosanoid concentrations.

## CCCCC/C=C\C/C=C\C/C=C\C/C=C\CCCC(=O)O [AA]
CCRF-CEM cells [1]; AA-1, CTRL (no AVX420)
  viability signal, raw values: 846644,033333333 and 824265,666666667 and 673546,5
CCRF-CEM cells [1]; AA-5, CTRL (no AVX420)
  viability signal, raw values: 927085,7 and 753657,333333333 and 655816,5
CCRF-CEM cells [1]; AA-10, CTRL (no AVX420)
  viability signal, raw values: 862846,7 and 802148,333333333 and 667006,5
CCRF-CEM cells [1]; AA-20, CTRL (no AVX420)
  viability signal, raw values: 903682,366666667 and 709873,666666667 and 638998,5
CCRF-CEM cells [1]; AA-100, CTRL (no AVX420)
  viability signal, raw values: 925589,000333333 and 600588 and 592437,5
Jurkat E6.1 cells [2]
  ROS Negative Cells (Figure S9c): 97 and 95
  ROS Positive Cells (Figure S9c): 3 and 5
Jurkat E6.1 cells [3]; Jurkat E6.1, AA-1, CTRL (no AVX420)
  viability signal, raw values: 945477,333333333 and 910583,466666667 and 794162,5
Jurkat E6.1 cells [3]; Jurkat E6.1, AA-5, CTRL (no AVX420)
  viability signal, raw values: 896908,333333333 and 842500,133333333 and 777643
Jurkat E6.1 cells [3]; Jurkat E6.1, AA-10, CTRL (no AVX420)
  viability signal, raw values: 858625 and 837920,133333333 and 768078,5
Jurkat E6.1 cells [3]; Jurkat E6.1, AA-20, CTRL (no AVX420)
  viability signal, raw values: 835050 and 861305,466666667 and 719180

## CCCCC/C=C\C/C=C\C/C=C\C/C=C\CCCC(=O)C(F)(F)F [ATK, arachidonyl trifluoromethyl ketone]
Whole blood; 10 uM + LPS + AA
  5-HETE: 62.15 and 48.84 and 43.16 and 63.64
  11,12-EET: 12.43 and 12.11 and 11.23 and 10.37
  12-HETE: 131.5 and 102.1 and 99.1 and 71.1
  LTB4: 0.7 and 0.6 and 0.8 and 0.5
  15-HETE level, whole blood: 74.26 pmol/mL and 68.85 pmol/mL and 74.36 pmol/mL and 63.52 pmol/mL
  PGE2 level, whole blood: 16.3 pmol/mL and 19.3 pmol/mL and 11.3 pmol/mL and 11.2 pmol/mL
  TxB2 level, whole blood: 13.1 pmol/mL and 35.6 pmol/mL and 22.8 pmol/mL and 21.1 pmol/mL
Whole blood; 10 uM + LPS
  15-HETE level, whole blood: 0.26 pmol/mL and 1.13 pmol/mL and 0.31 pmol/mL and 0.48 pmol/mL
  PGE2 level, whole blood: 0.1 pmol/mL and 2.4 pmol/mL and 0.5 pmol/mL and 1.1 pmol/mL
  TxB2 level, whole blood: 1.2 pmol/mL and 9.9 pmol/mL and 2.1 pmol/mL and 3.4 pmol/mL
CCRF-CEM cells [4]
  intracellular ROS (iROS): increased iROS

## Cc1ccc(-c2cc(C(F)(F)F)nn2-c2ccc(S(N)(=O)=O)cc2)cc1 [Celecoxib, celecoxib, reference compound]
Isolated human PBMCs
  LTB4 level, PBMCs: 120.7 pg/mL and 156.9 pg/mL and 348.2 pg/mL and 111.7 pg/mL
  PGE2 level, PBMCs: 146.1 pg/mL and 36.8 pg/mL and 25.1 pg/mL and 59.9 pg/mL
  TxB2 level, PBMCs: 2358.3 pg/mL and 690.2 pg/mL and 212.9 pg/mL and 1753.1 pg/mL

## COc1ccc2c(c1)c(CC(=O)O)c(C)n2C(=O)c1ccc(Cl)cc1 [Indo, indomethacin]
Whole blood; 1 uM + LPS + AA
  5-HETE: 68.97 and 43.93 and 45.12 and 44.17
  11,12-EET: 9.56 and 11.87 and 10.26 and 11.6
  12-HETE: 64.2 and 109.5 and 89.5 and 60.3
  LTB4: 0.4 and 0.7 and 0.5
  15-HETE level, whole blood: 61.7 pmol/mL and 75.64 pmol/mL and 71.47 pmol/mL and 74.74 pmol/mL
  PGE2 level, whole blood: 11.3 pmol/mL and 12.8 pmol/mL and 10.1 pmol/mL and 11.1 pmol/mL
  TxB2 level, whole blood: 1.2 pmol/ml (2×) and 1.6 pmol/ml and 1 pmol/ml
Whole blood; 1 uM + LPS
  15-HETE level, whole blood: 0.16 pmol/mL and 0.77 pmol/mL and 0.18 pmol/mL and 0.15 pmol/mL
  PGE2 level, whole blood: 0.05 pmol/mL
  TxB2 level, whole blood: 0.05 pmol/ml (3×) and 0.1 pmol/ml
Whole blood; whole blood, LPS, in the absence and presence of exogenous free AA
  production of PGE2 and TXB2: suppressed the production

## CC(Cc1ccc(O)c(O)c1)C(C)Cc1ccc(O)c(O)c1 (stereo not shown) [NDGA, nordihydroguaiaretic acid, reference compound]
Isolated human PBMCs
  LTB4 level, PBMCs: 125.8 pg/mL and 134 pg/mL and 192.1 pg/mL and 116.5 pg/mL
  PGE2 level, PBMCs: 307.5 pg/mL and 191.3 pg/mL and 70.7 pg/mL and 334.8 pg/mL
  TxB2 level, PBMCs: 14617 pg/mL and 11007 pg/mL and 1627.4 pg/mL and 14685.3 pg/mL
Isolated human PBMCs; A23187 stimulated
  6-Keto PGF1a: 23.4 and 36.1
  12-HETE: 69724.1 and 75249.5 and 44247.8

## COc1ccc2cc([C@H](C)C(=O)O)ccc2c1 [Naproxen, naproxen, reference compound]
Isolated human PBMCs
  LTB4 level, PBMCs: 580.9 pg/mL and 678 pg/mL and 1105.1 pg/mL and 392.2 pg/mL
  PGE2 level, PBMCs: 99.6 pg/mL and 53.1 pg/mL and 27.7 pg/mL and 49.6 pg/mL
  TxB2 level, PBMCs: 2252.6 pg/mL and 716 pg/mL and 281.3 pg/mL and 1975.1 pg/mL

## COC(=O)c1ccc([C@@H]2c3[nH]c4ccccc4c3C[C@@H](C(=O)OC)N2C(=O)CCl)cc1 [RSL-3]
CCRF-CEM cells [1]; 0.06 µM, VEH
  cell viability (Control = 100): 29 and 32 and 36
Jurkat E6.1 cells [3]; Jurkat cells, 0.06 µM, VEH
  cell viability (Control = 100): 40 and 34 and 26
